pIC50: −log10 of the molar value.
System: OVCAR3 Cells
Test: OVCAR3 Cell Viability Assay (CellTiter-Glo)
Assay type: cell-based
Conditions: Homo sapiens, OVCAR-3, 144 h, 6 days incubation, read-out: OVCAR3 CTG IC50
Protocol: OVCAR3 Cells (ATCC, Cat #HTB-161) were seeded at a density of 2000 cells/well in a 96-well clear bottom plate (Greiner, Cat #655098) in 100 μL of complete media (RPMI1640+20% FBS+0.01 mg/mL human insulin). One hundred microliter of complete media was added into the blank well (column 1) for low control. Cells were allowed to adhere to the plate overnight in the incubator at 37° C., 5% CO2. On the following day, 0.5 μL of serially-diluted compounds were added to the cells (columns 2-10) and incubated for 6 days at 37 C, 5% CO2 (final 0.5% DMSO concentration); 0.5 μL of DMSO solution was added into the wells (column 11) for high control. Cell viability was detected according to the CellTiter-Glo Luminescent Cell Viability Assay Kit (Promega, Cat #G7573). Luminescence was recorded on the Tecan Spark plate reader. Inhibition rate (IR) of the tested compounds was determined by the following formula: IR (%)=(1−(RLUcompound−RLUlow control)/(RLUhigh control−RLUlow control))×100%. The IC50 value was calculated using the non-linear regression equation: Y=Bottom+(Top−Bottom)/(1+10^((Log IC50−X)×HillSlope)), where X is Log of compound concentration, Y is percent inhibition (IR (%)), Top and Bottom are plateaus in same units as Y.

Row | SMILES | pIC50
1 | O=C(Nc1ccc2ncn(CC(F)(F)F)c2c1)c1ccc(NS(=O)(=O)CCO)cc1N1CCC2(CC1)CC2 [Compound 2] | > 6.70
2 | Cc1cc(NC(=O)c2ccc(NS(=O)(=O)CCO)cc2N2C[C@H]3CCC[C@H]3C2)nc(N2CCC(F)(F)CC2)n1 [Compound 8] | > 6.70
3 | Cc1cc(NC(=O)c2ccc(NS(=O)(=O)CCO)cc2N2CC3CCC(C2)O3)nc(N2CCC(F)(F)CC2)n1 [Compound 10] | 5.70 to 6.70
4 | O=C1c2ccc(NS(=O)(=O)CCO)cc2C2(CCC3(CC3)CC2)CN1c1cccc(CN2CC(F)(F)C2)n1 [Compound 18] | > 6.70
5 | O=C1c2ccc(NS(=O)(=O)CCO)cc2C2(CCC3(CC3)CC2)CN1c1cccc(CN2CCC(F)(F)C2)n1 [Compound 19] | > 6.70
6 | Cn1cc(N2CC3(CCC4(CC4)CC3)c3cc(NS(=O)(=O)CCO)ccc3C2=O)nc1N1CCC(F)(F)CC1 [Compound 20] | 5.70 to 6.70
7 | O=C1c2ccc(NS(=O)(=O)CCO)cc2C2(CCC3(CC3)CC2)CN1c1cccc(OC2CC(F)(F)C2)n1 [Compound 24] | 5.70 to 6.70
8 | CC(c1cccc(N2CC3(CCC4(CC4)CC3)c3cc(NS(=O)(=O)CCO)ccc3C2=O)n1)N1CCC(F)(F)C1 (stereo not drawn) [Compound 30] | 5.70 to 6.70
9 | O=C1c2ccc(NS(=O)(=O)CCO)cc2C2(CCC3(CC3)CC2)CN1c1ccnc(N2CC(F)(F)C2)n1 [Compound 33] | 5.70 to 6.70
10 | Cc1cc(N2CC3(CCC4(CC4)CC3)c3cc(NS(=O)(=O)CCO)ccc3C2=O)nc(N2CCC(F)(F)CC2)n1 [Compound 35] | 5.70 to 6.70
11 | O=C1c2ccc(NS(=O)(=O)CCO)cc2C2(CCC3(CC3)CC2)CN1c1csc(N2CCC(F)(F)CC2)n1 [Compound 36] | < 5.70
12 | CC1CCN(c2nc(N3CC4(CCC5(CC5)CC4)c4cc(NS(=O)(=O)CCO)ccc4C3=O)ccc2F)CC1 [Compound 37] | 5.70 to 6.70
13 | CC1(F)CCN(c2nc(N3CC4(CCC5(CC5)CC4)c4cc(NS(=O)(=O)CCO)ccc4C3=O)ccc2F)CC1 [Compound 40] | > 6.70
14 | O=C1c2cc(F)c(NS(=O)(=O)CCO)cc2C2(CCC3(CC3)CC2)CN1c1ccnc(N2CCC(F)(F)CC2)n1 [Compound 41] | 5.70 to 6.70
15 | O=C1c2ccc(NS(=O)(=O)CCO)cc2C2(CCC3(CC3)CC2)CN1c1ccc(F)c(NC2CC(F)(F)C2)n1 [Compound 42] | > 6.70
16 | CN1CCN(c2nc(N3CC4(CCC5(CC5)CC4)c4cc(NS(=O)(=O)CCO)ccc4C3=O)ccc2F)CC1 [Compound 46] | 5.70 to 6.70
17 | O=C1c2ccc(NS(=O)(=O)CCO)cc2C2(CCC3(CC3)CC2)CN1c1ccc(F)c(N2CCCC(F)(F)CC2)n1 [Compound 47] | > 6.70
18 | O=C1c2ccc(NS(=O)(=O)CCO)cc2C2(CCC3(CC3)CC2)CN1c1cccc(NC2CC(F)(F)C2)n1 [Compound 48] | > 6.70
19 | CN(c1nc(N2CC3(CCC4(CC4)CC3)c3cc(NS(=O)(=O)CCO)ccc3C2=O)ccc1C#N)C1CC(F)(F)C1 [Compound 49] | > 6.70
20 | CN(c1nccc(N2CC3(CCC4(CC4)CC3)c3cc(NS(=O)(=O)CCO)ccc3C2=O)n1)C1CCC(F)(F)C1 (stereo not drawn) [Compound 50] | 5.70 to 6.70
21 | Cc1ccc(N2CC3(CCC4(CC4)CC3)c3cc(NS(=O)(=O)CCO)ccc3C2=O)nc1N1CCC(F)(F)CC1 [Compound 52] | > 6.70
22 | O=C1c2ccc(NS(=O)(=O)CCO)cc2C2(CCC3(CC3)CC2)CN1c1cncc(N2CCC(F)(F)CC2)n1 [Compound 54] | > 6.70
23 | CC(c1nc(N2CC3(CCC4(CC4)CC3)c3cc(NS(=O)(=O)CCO)ccc3C2=O)ccc1C#N)N1CC(F)(F)C1 (stereo not drawn) [Compound 55] | < 5.70
24 | N#Cc1ccc(N2CC3(CCC4(CC4)CC3)c3cc(NS(=O)(=O)CCO)ccc3C2=O)nc1CN1CC(F)(F)C1 [Compound 57] | < 5.70
25 | O=C1c2ccc(NS(=O)(=O)CCO)cc2C2(CCC3(CC3)CC2)CN1c1cncc(NC2CC(F)(F)C2)n1 [Compound 58] | 5.70 to 6.70
26 | N#Cc1ccc(N2CC3(CCC4(CC4)CC3)c3cc(NS(=O)(=O)CCO)cnc3C2=O)nc1N1CCC(F)(F)CC1 [Compound 59] | 5.70 to 6.70
27 | O=C1c2ccc(NS(=O)(=O)CCO)cc2C2(CCC3(CC3)CC2)CN1c1ccc2ncn(CC(F)(F)F)c2n1 [Compound 60] | 5.70 to 6.70

The next lines start with the values.

Row | pIC50 | SMILES
28 | 5.70 to 6.70 | O=C1c2ccc(NS(=O)(=O)CCO)cc2C2(CCC3(CC3)CC2)CN1c1ccc(F)c(OC2CC(F)(F)C2)n1 [Compound 61]
29 | > 6.70 | CC1CN(c2nc(N3CC4(CCC5(CC5)CC4)c4cc(NS(=O)(=O)CCO)ccc4C3=O)ccc2C#N)CCO1 (stereo not drawn) [Compound 63]
30 | 5.70 to 6.70 | O=C1c2ncc(NS(=O)(=O)CCO)cc2C2(CCC3(CC3)CC2)CN1c1ccnc(N2CCC(F)(F)CC2)n1 [Compound 64]
31 | 5.70 to 6.70 | O=C1c2cc(F)c(NS(=O)(=O)CCO)cc2C2(CCC3(CC3)CC2)CN1c1ccnc(NC2CC(F)(F)C2)n1 [Compound 65]
32 | > 6.70 | O=C1c2ccc(NS(=O)(=O)CCO)cc2C2(CCC3(CC3)CC2)CN1c1ccnc(NC2CCCC2)n1 [Compound 66]
33 | 5.70 to 6.70 | O=C1c2ccc(NS(=O)(=O)CCO)cc2C2(CCC(F)(F)CC2)CN1c1ccnc(N2CCC(F)(F)CC2)n1 [Compound 67]
34 | < 5.70 | O=C1c2ccc(NS(=O)(=O)CCO)nc2C2(CCC3(CC3)CC2)CN1c1ccnc(N2CCC(F)(F)CC2)n1 [Compound 68]
35 | 5.70 to 6.70 | N#Cc1ccc(N2CC3(CCC4(CC4)CC3)c3nc(NS(=O)(=O)CCO)ccc3C2=O)nc1N1CCC(F)(F)CC1 [Compound 70]
36 | > 6.70 | Cc1ncc(N2CC3(CCC4(CC4)CC3)c3cc(NS(=O)(=O)CCO)ccc3C2=O)nc1N1CCC(F)(F)CC1 [Compound 73]
37 | > 6.70 | CC1(C)CCC2(CC1)CN(c1ccnc(NC3CC(F)(F)C3)n1)C(=O)c1ccc(NS(=O)(=O)CCO)cc12 [Compound 74]
38 | 5.70 to 6.70 | O=C1c2ccc(NS(=O)(=O)CCO)cc2C2(CCC(=C(F)F)CC2)CN1c1ccnc(N2CCC(F)(F)CC2)n1 (stereo not drawn) [Compound 77]
39 | > 6.70 | N#Cc1ccc(N2CC3(CCC(F)(F)CC3)c3cc(NS(=O)(=O)CCO)ccc3C2=O)nc1N1CCC(F)(F)CC1 [Compound 78]
40 | 5.70 to 6.70 | O=C1c2ccc(NS(=O)(=O)CCO)cc2C2(CCC3(CC3)CC2)CN1c1ccnc(N2CC3CCC2C3)n1 (stereo not drawn) [Compound 82]
41 | 5.70 to 6.70 | O=C1c2ccc(NS(=O)(=O)CCO)cc2C2(CCC3(CC3)CC2)CN1c1ccc(=O)n(CC2CC(F)(F)C2)n1 [Compound 83]
42 | > 6.70 | O=C1c2ccc(NS(=O)(=O)CCO)cc2C2(CCC3(CC3)CC2)CN1c1ccnc(NCCC(F)(F)F)n1 [Compound 84]
43 | > 6.70 | N#Cc1ccc(N2CC3(CCC4(CC4)CC3)c3cc(NS(=O)(=O)CCO)ccc3C2=O)nc1NCCC(F)(F)F [Compound 93]
44 | 5.70 to 6.70 | CC1(CNc2nccc(N3CC4(CCC5(CC5)CC4)c4cc(NS(=O)(=O)CCO)ccc4C3=O)n2)COC1 [Compound 96]
45 | 5.70 to 6.70 | O=C1c2ccc(NS(=O)(=O)CCO)cc2C2(CCC(F)(F)CC2)CN1c1ccnc(NC2CC(F)(F)C2)n1 [Compound 97]
46 | > 6.70 | N#Cc1ccc(N2CC3(CCC4(CC4)CC3)c3cc(NS(=O)(=O)CCO)ccc3C2=O)nc1S(=O)(=O)C1CCCC1 [Compound 100]
47 | 5.70 to 6.70 | CC1(F)CCC2(CC1)CN(c1ccnc(N3CCC(F)(F)CC3)n1)C(=O)c1ccc(NS(=O)(=O)CCO)cc12 (stereo not drawn) [Compound 103]
48 | > 6.70 | N#Cc1ccc(N2CC3(CCC(F)(F)CC3)c3cc(NS(=O)(=O)CCO)ccc3C2=O)nc1NC1CC(F)(F)C1 [Compound 104]

From patent US20260184692A1, “HETEROCYCLIC COMPOUNDS, PREPARATION METHODS AND USES THEREOF” (InventisBio Co., Ltd., priority 2022, published 2026)
